Data: paper PMC10649063, “Optimization of a Novel Tyrosinase Inhibitory Peptide from Atrina pectinata Mantle and Its Molecular Inhibitory Mechanism” (Foods, 2023)
Entries after “also recorded” stand apart in the source; their conditions may differ. Like-named read-outs stand apart in the source and are kept apart here. Blank lines part the entries; values can stand above or below the molecule they belong to. Peptide text beside a SMILES is read from it.

Key:
[1] = target: Mushroom tyrosinase (Agaricus bisporus) (UniProt C7FF04); assay: enzyme inhibition kinetics (Lineweaver-Burk); tyrosinase with L-tyrosine as substrate; KI and KIS from the slope ratio and intercept ratio of the Lineweaver-Burk lines with and without YYP; YYP 0.5 mM
[2] = target: Mushroom tyrosinase (Agaricus bisporus) (UniProt C7FF04)
[3] = target: Mushroom tyrosinase (Agaricus bisporus) (UniProt C7FF04); assay: enzyme inhibition kinetics (Lineweaver-Burk); tyrosinase with L-tyrosine as substrate; KI and KIS from the slope ratio and intercept ratio of the Lineweaver-Burk lines with and without YYP; YYP 2 mM
[4] = target: Mushroom tyrosinase (Agaricus bisporus) (UniProt C7FF04); assay: enzyme inhibition kinetics (Lineweaver-Burk); tyrosinase with L-tyrosine as substrate; KI and KIS from the slope ratio and intercept ratio of the Lineweaver-Burk lines with and without YYP; YYP 1 mM
[5] = target: T1, Mushroom tyrosinase (Agaricus bisporus, UniProt C7FF04); assay: Tyrosinase inhibitory activity (L-tyrosine substrate, absorbance at 475 nm); format: biochemical
T1 construct: purchased Beijing Solarbio Biotechnology Co., Ltd
T1 sequence (C7FF04 1-392 limits assumed): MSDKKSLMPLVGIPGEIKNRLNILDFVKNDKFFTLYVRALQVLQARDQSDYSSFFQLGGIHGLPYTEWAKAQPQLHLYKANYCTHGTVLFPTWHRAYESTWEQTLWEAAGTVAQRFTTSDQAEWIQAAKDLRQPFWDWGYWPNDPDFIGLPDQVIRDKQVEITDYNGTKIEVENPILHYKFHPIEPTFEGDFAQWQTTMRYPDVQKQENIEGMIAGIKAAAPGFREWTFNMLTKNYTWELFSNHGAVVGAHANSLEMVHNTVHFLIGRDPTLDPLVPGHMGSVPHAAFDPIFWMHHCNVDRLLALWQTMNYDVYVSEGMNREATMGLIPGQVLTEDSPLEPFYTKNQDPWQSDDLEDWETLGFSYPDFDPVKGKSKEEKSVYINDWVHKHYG
Method: Tyrosinase inhibitory activity was determined in conformity with. With reference to the reagent addition in Table 1, we added phosphate buffer solution (PBS, pH 6.8, 0.1 mol/L), sample solutions and L-tyrosine solution (L-Tyr, 0.5 mg/mL, pH 6.8 in PBS) to each well in a 96-well plate. These were mixed well and incubated at 37 °C for 10 min. Then, 20 μL of mushroom tyrosinase solution (500 U/mL) was added, mixed and reacted at 37 °C for 15 min, and monitored at 475 nm. The tyrosinase inhibition rate (Y) was calculated as follows:(1) Y=(1−A4−A3/A2−A1)×100% where A4 is the absorbance of the reaction well of the sample, A3 is the absorbance value of the sample background well, A2 is the absorption value of the solvent reaction well and A1 is the absorbance of the solvent background well.

[6] = target: T2, tyrosinase (Agaricus bisporus, UniProt C7FF04); assay: Enzyme inhibition kinetic assay (enzyme concentration vs. rate, Lineweaver–Burk plots); format: biochemical, mushroom; settings: for Ki: Inhibition Constant KI (mM), enzyme–inhibitor complex; for Inhibition Constant KIS: enzyme–inhibitor–substrate complex
T2 construct: purchased Beijing Solarbio Biotechnology Co., Ltd
From the text: The Lineweaver–Burk double-inverse curve was obtained by taking the reciprocal of the substrate concentration (1/[S]) as the horizontal coordinate and the reciprocal of the initial reaction rate (1/V) as the vertical coordinate to determine the type of inhibition and to calculate the Mie constant (KM) and the maximum reaction rate (Vmax).
To elucidate the mechanism of inhibition of tyrosinase by YYP, kinetic studies were used to investigate the kinetic characterization of the inhibitory response (Figure 6).
The Lineweaver–Burk double-inverse plot of the inhibitory effect of YYP on tyrosinase is illustrated in Figure 6. The 1/V were both fitted linearly to the 1/[S] (R^2 and p-values shown in Table 10) and intersected in the second quadrant of the graph. As the amount of YYP increased, the value of KM increased and the value of Vmax decreased.
The mixed-inhibitory type inhibits tyrosinase via two distinct pathways: competitively forming enzyme–inhibitor (EI) complexes and interrupting enzyme–substrate–inhibitor (ESI) complexes in a noncompetitive manner. The inhibition constant KI or KIS is the dissociation constant for the dissociation of the inhibitor (I) from the EI complexs or the enzyme–inhibitor–substrate (EIS) complexs. Both baicalein and cinnamic acid derivatives are reversible mixed-type inhibitors. […] Summarized in Table 10, based on the slope ratio and intercept ratio of the Lineweaver–Burk curve (with and without the presence of samples), the KI and KIS can be obtained.

[7] = synthetic peptides, read-out: Tyrosinase Inhibitory Activity (IC50)

Molecule: Tyr-Tyr-Pro (YYP) (peptide)
KIS (inhibitor from the enzyme-inhibitor-substrate complex) [1]: 8.38 mM
Tyrosinase Inhibitory Activity (IC50, mM); oxidation of L-tyrosine by mushroom tyrosinase read at 475 nm [2]: 1.76 mM
KIS (inhibitor from the enzyme-inhibitor-substrate complex) [3]: 12.1 mM
KIS (inhibitor from the enzyme-inhibitor-substrate complex) [4]: 11.4 mM

Molecule: N[C@@H](Cc1ccc(O)cc1)C(=O)N[C@@H](Cc1ccc(O)cc1)C(=O)N1CCC[C@H]1C(=O)O [YYP, Tyr-Tyr-Pro] (H-Tyr-Tyr-Pro-OH; N-terminus and C-terminus assumed)
IC50 [5]: 1760 ± 25 µM
Ki ([6]; YYP 0.5 mM): 0.245 mM
Ki ([6]; YYP 1 mM): 0.283 mM
Ki ([6]; YYP 2 mM): 0.428 mM
Type of tyrosinase inhibition ([6]; Lineweaver–Burk analysis): mixture of noncompetitive and competitive types; also recorded: mixed type of inhibition; also recorded: hybrid
Maximum Reaction Speed Vmax (A475/min) ([6]; YYP 0.5 mM): 0.0212 A475/min
Inhibition Constant KIS ([6]; YYP 0.5 mM): 8.3833 mM
Maximum Reaction Speed Vmax (A475/min) ([6]; YYP 1 mM): 0.0206 A475/min
Inhibition Constant KIS ([6]; YYP 1 mM): 11.4139 mM
Maximum Reaction Speed Vmax (A475/min) ([6]; YYP 2 mM): 0.0192 A475/min
Inhibition Constant KIS ([6]; YYP 2 mM): 12.1276 mM
Reversibility of tyrosinase inhibition ([6]; enzyme concentration vs. initial rate at different YYP concentrations): reversible

Molecule: CC(C)[C@H](NC(=O)[C@H](CCCNC(=N)N)NC(=O)[C@@H](N)Cc1ccccc1)C(=O)N[C@@H](CCCCN)C(=O)O [FRVK, Phe-Arg-Val-Lys] (H-FRVK-OH; N-terminus and C-terminus assumed)
IC50 [5, 7]: 5870 ± 68 µM

Molecule: PHHF [Pro-His-His-Phe (PHHF)]
Tyrosinase Inhibitory Activity (IC50, mM); oxidation of L-tyrosine by mushroom tyrosinase read at 475 nm [2]: > 10 mM

The remaining lines, values ahead:

IC50 [5, 7]: > 10000 µM
Molecule: O=C(O)[C@H](Cc1ccccc1)NC(=O)[C@H](Cc1c[nH]cn1)NC(=O)[C@H](Cc1c[nH]cn1)NC(=O)[C@@H]1CCCN1 [PHHF, Pro-His-His-Phe] (H-PHHF-OH; N-terminus and C-terminus assumed)

Tyrosinase Inhibitory Activity (IC50, mM); oxidation of L-tyrosine by mushroom tyrosinase read at 475 nm [2]: > 10 mM
Molecule: Pro-Tyr-Leu-Lys (PYLK) (peptide)

IC50 [5, 7]: > 10000 µM
Molecule: CC(C)C[C@H](NC(=O)[C@H](Cc1ccc(O)cc1)NC(=O)[C@@H]1CCCN1)C(=O)N[C@@H](CCCCN)C(=O)O [PYLK, Pro-Tyr-Leu-Lys] (H-PYLK-OH; N-terminus and C-terminus assumed)

Tyrosinase Inhibitory Activity (IC50, mM); oxidation of L-tyrosine by mushroom tyrosinase read at 475 nm [2]: 5.87 mM
Molecule: FRVK [Phe-Arg-Val-Lys (FRVK)]
